This passage reports Kd and EC50 results from BindingDB's records for doi:10.1021/cb600311v (University of California San Francisco, 2006).

The Kd is the concentration at which binding is half-saturated. Low readings indicate higher affinity, high ones lower affinity. Usually EC50 stands for the concentration that produces a half-maximal response. Higher therefore signals a need for much substance.

Test [1] deals with T1, Thyroid hormone receptor alpha (Homo sapiens, UniProt P10827).
T1 sequence (P10827 whole entry): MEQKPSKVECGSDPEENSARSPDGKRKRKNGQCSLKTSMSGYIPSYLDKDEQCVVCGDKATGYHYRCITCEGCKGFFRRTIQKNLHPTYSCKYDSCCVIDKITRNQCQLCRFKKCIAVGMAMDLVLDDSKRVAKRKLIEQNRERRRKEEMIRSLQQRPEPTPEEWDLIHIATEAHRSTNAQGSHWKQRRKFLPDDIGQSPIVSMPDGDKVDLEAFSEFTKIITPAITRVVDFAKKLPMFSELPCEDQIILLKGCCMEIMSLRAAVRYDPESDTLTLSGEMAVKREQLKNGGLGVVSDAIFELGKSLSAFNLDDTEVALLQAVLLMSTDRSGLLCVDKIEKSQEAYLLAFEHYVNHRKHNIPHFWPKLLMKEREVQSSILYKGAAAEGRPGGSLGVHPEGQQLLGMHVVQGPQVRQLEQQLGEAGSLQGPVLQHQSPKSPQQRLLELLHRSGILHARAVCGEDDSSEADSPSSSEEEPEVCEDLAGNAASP
The test is described as follows: Competition Binding Assay. An excerpt: (§1) Thyroid hormone competitive binding assay using TNT T7 quick-coupled transcription translation system from promega.

The target in test [2] is T2, Thyroid hormone receptor beta (Homo sapiens, UniProt P10828).
T2 sequence (P10828 whole entry): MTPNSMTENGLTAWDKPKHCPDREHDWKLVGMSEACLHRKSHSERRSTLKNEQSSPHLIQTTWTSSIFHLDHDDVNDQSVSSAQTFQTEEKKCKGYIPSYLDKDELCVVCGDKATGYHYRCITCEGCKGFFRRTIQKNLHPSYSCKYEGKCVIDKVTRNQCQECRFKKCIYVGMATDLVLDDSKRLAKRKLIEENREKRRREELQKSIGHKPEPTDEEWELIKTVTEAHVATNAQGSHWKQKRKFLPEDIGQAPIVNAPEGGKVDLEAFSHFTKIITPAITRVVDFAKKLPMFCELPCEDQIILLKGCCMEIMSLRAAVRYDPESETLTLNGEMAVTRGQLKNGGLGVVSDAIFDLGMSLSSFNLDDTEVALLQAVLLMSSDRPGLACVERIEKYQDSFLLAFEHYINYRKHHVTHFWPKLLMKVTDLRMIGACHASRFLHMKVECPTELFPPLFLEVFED
The test is described as follows: Competition Binding Assay.
Description: as §1

Test [3] addresses T1, Thyroid hormone receptor alpha. The test is described as follows: Transactivation Assay in U2OS cells. The source says: TRE-driven dual-luciferase reporter assay in human bone osteosarcoma epithelial (U2OS) cell line.

`CC(C)c1cc(Oc2c(I)cc(Cc3[nH]c(=O)[nH]c3O)cc2I)ccc1O`: the figures for the Kd in test [1] and in test [2] were 1.2 nM and 1.7 nM, respectively. The same molecule came in with an EC50 in test [3] of 34 nM.
The matching figures for `Cc1cc(Cc2[nH]c(=O)[nH]c2O)cc(C)c1Oc1ccc(O)c(C(C)C)c1` [CO22]: 286 nM, 280 nM and 3870 nM.
